# Test results published in patent US20260258064A1 (SIRONAX LTD., priority 2023, published 2026).
# Target: T1, SARM1 (50-724) (Homo sapiens, UniProt Q6SZW1)
# T1 construct: Purified SARM1 (50-724) with a final concentration of 2 nM was pre-incubated with a test compound
# T1 sequence (Q6SZW1 50-724): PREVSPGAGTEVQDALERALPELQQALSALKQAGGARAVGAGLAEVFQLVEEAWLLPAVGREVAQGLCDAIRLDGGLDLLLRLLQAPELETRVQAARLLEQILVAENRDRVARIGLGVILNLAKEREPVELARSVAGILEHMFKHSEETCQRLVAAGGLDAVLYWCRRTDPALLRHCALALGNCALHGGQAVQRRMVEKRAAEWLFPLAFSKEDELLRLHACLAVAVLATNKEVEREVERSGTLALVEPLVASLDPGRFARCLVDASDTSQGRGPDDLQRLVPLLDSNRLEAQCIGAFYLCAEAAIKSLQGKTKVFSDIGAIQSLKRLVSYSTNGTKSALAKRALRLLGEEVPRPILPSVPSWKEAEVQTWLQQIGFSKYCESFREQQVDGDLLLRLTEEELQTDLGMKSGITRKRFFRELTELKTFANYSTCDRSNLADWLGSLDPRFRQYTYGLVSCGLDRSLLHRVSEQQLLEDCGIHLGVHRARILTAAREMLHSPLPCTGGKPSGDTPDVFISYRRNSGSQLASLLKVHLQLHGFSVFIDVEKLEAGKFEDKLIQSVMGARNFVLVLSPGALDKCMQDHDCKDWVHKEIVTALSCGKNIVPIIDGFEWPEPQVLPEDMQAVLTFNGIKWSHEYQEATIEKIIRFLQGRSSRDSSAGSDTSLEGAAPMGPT
# Assay: SARM1 (50-724) enzymatic assay (LC-MS/MS)
# Format: biochemical
# Details: Purified SARM1 (50-724) 2 nM, NMN as activator, NAD+ as substrate, 1 h at room temperature, read-out: IC50 (SARM1 inhibitory activity)
# Method in brief: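 Reaction buffer was Dulbecco's PBS. Compound and 2 nM human SARM1 (50-724) were pre-incubated 15 min at room temperature, then […] NAD^+ and 200 µM NMN activator were added for 1 h at room temperature. Acetonitrile (70%) stop, LC-MS/MS read-out, IC50 values.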
row,SMILES,IC50
1,"FC(F)(F)c1ccc2[nH]c(-c3nncn3-c3cnccc3C(F)(F)F)c(-c3ccccn3)c2c1 [Compound 390, 3-(pyridin-2-yl)-5-(trifluoromethyl)-2-(4-(4-(trifluoromethyl)pyridin-3-yl)-4H-1,2,4-triazol-3-yl)-1H-indole]",≤ 100 nM
2,O=c1onc(-c2cccc(Cl)c2Cl)n1-c1nc2cc(C(F)(F)F)ccc2[nH]1 [Compound 32],> 1000 nM
3,"CS(=O)(=O)CCc1cc(-n2cnnc2-c2nc3cc(C(F)(F)F)ccc3[nH]2)c(OC(F)(F)F)cn1 [Compound 254, 2-(4-(2-(2-(methylsulfonyl)ethyl)-5-(trifluoromethoxy)pyridin-4-yl)-4H-1,2,4-triazol-3-yl)-5-(trifluoromethyl)-1H-benzo[d]imidazole]",≤ 100 nM
4,"FC(F)(F)c1ccc2[nH]c(-c3nncn3-c3c(Cl)ccc4[nH]ncc34)nc2c1 [Compound 209, 5-chloro-4-(3-(5-(trifluoromethyl)-1H-benzo[d]imidazol-2-yl)-4H-1,2,4-triazol-4-yl)-1H-indazole]",≤ 100 nM
5,"Cn1cc(-c2ccc3[nH]c(-c4nncn4-c4cccc(Cl)c4Cl)nc3c2)cn1 [Example 79, 2-(4-(2,3-dichlorophenyl)-4H-1,2,4-triazol-3-yl)-5-(1-methyl-1H-pyrazol-4-yl)-1H-benzo[d]imidazole]",100 to 500 nM
6,"Cc1cc(-c2ccc3[nH]c(-c4nncn4-c4cccc(Cl)c4Cl)nc3c2)sn1 [Example 80, 5-(2-(4-(2,3-dichlorophenyl)-4H-1,2,4-triazol-3-yl)-1H-benzo[d]imidazol-5-yl)-3-methylisothiazole]",100 to 500 nM
7,"FC(F)(F)c1ccc2[nH]c(-c3nncn3-c3cn4nccc4cc3C(F)(F)F)nc2c1 [Compound 311, 5-(trifluoromethyl)-2-(4-(5-(trifluoromethyl)pyrazolo[1,5-a]pyridin-6-yl)-4H-1,2,4-triazol-3-yl)-1H-benzo[d]imidazole]",100 to 500 nM
8,"CCc1ccc2[nH]c(-c3nncn3-c3cnccc3C(F)(F)F)nc2c1 [Compound 277, 5-ethyl-2-(4-(4-(trifluoromethyl)pyridin-3-yl)-4H-1,2,4-triazol-3-yl)-1H-benzo [d]imidazole]",≤ 100 nM
9,"FC(F)(F)c1ccc2[nH]c(-c3ncncc3-c3cccc(Cl)c3Cl)nc2c1 [Compound 310, 2-(5-(2,3-dichlorophenyl)pyrimidin-4-yl)-5-(trifluoromethyl)-1H-benzo[d]imidazole]",> 1000 nM
10,"NC(=O)c1cc(-c2nc3cc(C(F)(F)F)ccc3[nH]2)n(-c2cccc(F)c2Cl)n1 [Compound 397, 1-(2-chloro-3-fluorophenyl)-5-(5-(trifluoromethyl)-1H-benzo[d]imidazol-2-yl)-1H-pyrazole-3-carboxamide]",≤ 100 nM
11,"[2H]c1cncc(-n2c([2H])nnc2-c2nc3c(F)c(C4([2H])CC4)ccc3[nH]2)c1C(F)(F)F [Compound 372, 5-(cyclopropyl-1-d)-4-fluoro-2-(4-(4-(trifluoromethyl)pyridin-3-yl-5-d)-4H-1,2,4-triazol-3-yl-5-d)-1H-benzo[d]imidazole]",≤ 100 nM
12,"CS(=O)(=O)Cn1cc(-c2nc3cc(C(F)(F)F)ccc3[nH]2)c(-c2cccc(Cl)c2Cl)n1 [Compound 438, 2-(3-(2,3-dichlorophenyl)-1-((methylsulfonyl)methyl)-1H-pyrazol-4-yl)-5-(trifluoromethyl)-1H-benzo[d]imidazole]",> 1000 nM
13,"FC(F)(F)Cc1ccccc1-n1cnnc1-c1nc2cc(C(F)(F)F)ccc2[nH]1 [Compound 248, 2-(4-(2-(2,2,2-trifluoroethyl)phenyl)-4H-1,2,4-triazol-3-yl)-5-(trifluoromethyl)-1H-benzo[d]imidazole]",> 1000 nM
14,"O=C1CCCN1c1ccc2[nH]c(-c3nncn3-c3cccc(Cl)c3Cl)nc2c1 [Example 137, 1-(2-(4-(2,3-dichlorophenyl)-4H-1,2,4-triazol-3-yl)-1H-benzo[d]imidazol-5-yl)pyrrolidin-2-one]",> 1000 nM
15,"O=S1(c2cc(F)c3[nH]c(-c4nncn4-c4cnccc4C(F)(F)F)nc3c2)=NCCC1 (centres unmarked) [Compound 424, 1-[7-fluoro-2-[4-[4-(trifluoromethyl)-3-pyridyl]-1,2,4-triazol-3-yl]-1H-benzimidazol-5-yl]-4,5-dihydro-3H-isothiazole 1-oxide]",> 1000 nM
16,"Fc1cccc(-n2cnnc2-c2nc3cc(C(F)(F)F)ccc3[nH]2)c1F [Example 84, 2-(4-(2,3-difluorophenyl)-4H-1,2,4-triazol-3-yl)-5-(trifluoromethyl)-1H-benzo[d]imidazole]",≤ 100 nM

row,SMILES,IC50
1,"CN(c1cc(F)c2[nH]c(-c3nncn3-c3cnccc3C(F)(F)F)nc2c1)c1nccs1 [Compound 417, N-(7-fluoro-2-(4-(4-(trifluoromethyl)pyridin-3-yl)-4H-1,2,4-triazol-3-yl)-1H-benzo[d]imidazol-5-yl)-N-methylthiazol-2-amine]",≤ 100 nM
2,"C[S+]([O-])c1c(Br)ccc2[nH]c(-c3nncn3-c3cccc(Cl)c3Cl)nc12 (centres unmarked) [Example 94, 5-bromo-2-(4-(2,3-dichlorophenyl)-4H-1,2,4-triazol-3-yl)-4-(methylsulfinyl)-1H-benzo[d]imidazole]",500 to 1000 nM
3,FC(F)(F)c1ccc2[nH]c(-c3nncn3-c3cccc4nccn34)nc2c1 [Example 62],> 1000 nM
4,"FC(F)(F)c1ccc2[nH]c(-c3nncn3-c3cnccc3C(F)(F)F)c(C3CCNC3)c2c1 (centres unmarked) [Compound 375, 3-(pyrrolidin-3-yl)-5-(trifluoromethyl)-2-(4-(4-(trifluoromethyl)pyridin-3-yl)-4H-1,2,4-triazol-3-yl)-1H-indole]",100 to 500 nM
5,"CS(=O)(=O)NCc1nnc(-c2nc3cc(C(F)(F)F)ccc3[nH]2)n1-c1cccc(Cl)c1Cl [Compound 139, N-((4-(2,3-dichlorophenyl)-5-(5-(trifluoromethyl)-1H-benzo[d]imidazol-2-yl)-4H-1,2,4-triazol-3-yl)methyl)methanesulfonamide]",≤ 100 nM
6,"Fc1cc(N2CCC2)cc2nc(-c3nncn3-c3cnccc3C(F)(F)F)[nH]c12 [Compound 301, 5-(azetidin-1-yl)-7-fluoro-2-(4-(4-(trifluoromethyl)pyridin-3-yl)-4H-1,2,4-triazol-3-yl)-1H-benzo[d]imidazole]",100 to 500 nM
7,"CS(=O)(=O)Cc1cccc(OC(F)(F)F)c1-n1cnnc1-c1nc2cc(C(F)(F)F)ccc2[nH]1 [Compound 289, 2-(4-(2-((methylsulfonyl)methyl)-6-(trifluoromethoxy)phenyl)-4H-1,2,4-triazol-3-yl)-5-(trifluoromethyl)-1H-benzo[d]imidazole]",≤ 100 nM
8,"O=c1cc(-n2cnnc2-c2cc3cc(C(F)(F)F)cc(F)c3[nH]2)c(OC(F)(F)F)cn1CCO [Compound 410, 4-(3-(7-fluoro-5-(trifluoromethyl)-1H-indol-2-yl)-4H-1,2,4-triazol-4-yl)-1-(2-hydroxyethyl)-5-(trifluoromethoxy)pyridin-2(1H)-one]",≤ 100 nM
9,"FC(F)C12CC(n3cnnc3-c3nc4cc(C(F)(F)F)ccc4[nH]3)(C1)C2 [Compound 214, 2-(4-(3-(difluoromethyl)bicyclo[1.1.1]pentan-1-yl)-4H-1,2,4-triazol-3-yl)-5-(trifluoromethyl)-1H-benzo[d]imidazole]",> 1000 nM
10,"FC(F)(F)c1ccncc1-n1cnnc1-c1nc2cc(N3C4COCC3C4)ccc2[nH]1 [Compound 342, 6-[2-[4-[4-(trifluoromethyl)-3-pyridyl]-1,2,4-triazol-3-yl]-1H-benzimidazol-5-yl]-3-oxa-6-azabicyclo[3.1.1]heptane]",500 to 1000 nM
11,Cn1cc(-c2cccc(Cl)c2)c(-c2nc3cc(C(F)(F)F)ccc3[nH]2)cc1=O [Example 76],> 1000 nM
12,"OCC(F)(F)COc1ccc(OC(F)(F)F)c(-n2cnnc2-c2nc3cc(C(F)(F)F)ccc3[nH]2)n1 [Compound 251, 2,2-difluoro-3-((5-(trifluoromethoxy)-6-(3-(5-(trifluoromethyl)-1H-benzo[d]imidazol-2-yl)-4H-1,2,4-triazol-4-yl)pyridin-2-yl)oxy)propan-1-ol]",≤ 100 nM
13,O=c1ccc(-c2cccc(Cl)c2Cl)c(-c2nc3cc(C(F)(F)F)ccc3[nH]2)[nH]1 [Example 37],> 1000 nM
14,"NC(=O)COc1ccc(OC(F)(F)F)c(-n2cnnc2-c2nc3cc(C(F)(F)F)ccc3[nH]2)c1 [Compound 249, 2-(4-(trifluoromethoxy)-3-(3-(5-(trifluoromethyl)-1H-benzo[d]imidazol-2-yl)-4H-1,2,4-triazol-4-yl)phenoxy)acetamide]",≤ 100 nM
15,"Fc1cccc(-n2cnnc2-c2nc3cc(C(F)(F)F)ccc3[nH]2)c1Cl [Example 59, 2-(4-(2-chloro-3-fluorophenyl)-4H-1,2,4-triazol-3-yl)-5-(trifluoromethyl)-1H-benzo[d]imidazole]",≤ 100 nM
16,"FC(F)(F)c1ccc2[nH]c(-c3nncn3-c3cnccc3C(F)(F)F)nc2c1 [Compound 225, 5-(Trifluoromethyl)-2-(4-(4-(trifluoromethyl)pyridin-3-yl)-4H-1,2,4-triazol-3-yl)-1H-benzo[d]imidazole]",≤ 100 nM
